Source: ChEMBL document CHEMBL5608113, “Targeting of CAF-induced therapy resistance in CRC organoid-stroma co-cultures” (2024)
Where “and” joins values, the source holds several entries; their conditions need not be identical. Equal entries are not always repeated.

Tests used:
Type in all cases: functional, Homo sapiens
Settings in all cases: Concentration 10 uM; for viability at 10 µM: Homo sapiens, read-out: Cell Viability
Colon cancer organoid [1] = assay: Targeting of F14 CAF-induced therapy resistance in O14 CRC organoid-stroma co-culture. Cell viability is reported with Gefitinib.
Colon cancer organoid [2] = assay: Targeting of F14 CAF-induced therapy resistance in O23 CRC organoid-stroma co-culture. Cell viability is reported with Gefitinib.
Colon cancer organoid [3] = assay: Targeting of F14 CAF-induced therapy resistance in O23 CRC organoid-stroma co-culture. Cell viability is reported with SN-38.
Colon cancer organoid [4] = assay: Targeting of F14 CAF-induced therapy resistance in O23 CRC organoid-stroma co-culture. Cell viability is reported without Gefitinib.
Colon cancer organoid [5] = assay: Targeting of F14 CAF-induced therapy resistance in O14 CRC organoid-stroma co-culture. Cell viability is reported without Gefitinib.

SMILES | viability at 10 µM (Colon cancer organoid [1]) [%] | viability at 10 µM (Colon cancer organoid [2]) [%] | viability at 10 µM (Colon cancer organoid [3]) [%] | viability at 10 µM (Colon cancer organoid [4]) [%] | viability at 10 µM (Colon cancer organoid [5]) [%] | Cell Viability (Colon cancer organoid [1]; 10 µM) [%] | Cell Viability (Colon cancer organoid [2]; 10 µM) [%] | Cell Viability (Colon cancer organoid [3]; 10 µM) [%] | Cell Viability (Colon cancer organoid [4]; 10 µM) | Cell Viability (Colon cancer organoid [5]; 10 µM)
c1ccc(N2CCN(Cc3nc4ccccc4[nH]3)CC2)nc1 | 57.8 | 66.8 | 106 | 163 | 134 | – | – | – | – | –
O=C(Nc1cccnn1)N1CCC(=Cc2cccc(Oc3ccc(C(F)(F)F)cn3)c2)CC1 | 37.7 | 54.6 | 105 | 114 | 94 | – | – | – | – | –
Cc1sc2c(c1C)C(c1ccc(Cl)cc1)=N[C@@H](CC(=O)OC(C)(C)C)c1nnc(C)n1-2 | 6.17 | 35.6 | 53.4 | 65.2 | 25.8 | – | – | – | – | –
COc1cc2c(cc1-c1c(C)noc1C)ncc1[nH]c(=O)n([C@H](C)c3ccccn3)c12 | 9.93 | 78.1 | 91.5 | 143 | 30.2 | – | – | – | – | –
Cc1ccc(NC(=O)Nc2cc(C(F)(F)F)ccc2F)cc1Nc1ccc2c(c1)NC(=O)/C2=C\c1ccc[nH]1 | 40 | 82.1 | 74.2 | 117 | 121 | – | – | – | – | –
COc1ccc(Cn2ccc3ccc(C(=O)NO)cc32)cc1 | 52.8 | 89.4 | 94.6 | 126 | 75.4 | – | – | – | – | –
COc1ccccc1S(=O)(=O)Nc1ccc2c(c1)CN(C)C(=O)N2 | 57.5 | 53.9 | 73.2 | 105 | 101 | – | – | – | – | –
CCCCNc1ncc(-c2ccc(CN3CCOCC3)cn2)c(N[C@H]2CC[C@H](O)CC2)n1 | 3.91 | 12 | 28.9 | 18.1 | 9.12 | – | – | – | – | –
CCOC(=O)Nc1cc(-c2ccc(C)c(NS(C)(=O)=O)c2)nn2c(C)nnc12 | 14 | 63.4 | 79.5 | 146 | 59.2 | – | – | – | – | –
CCOC(=O)CCNc1cc(N2CCc3ccccc3CC2)nc(-c2ccccn2)n1 | 59.5 | 59.2 | 121 | 155 | 93.3 | – | – | – | – | –
COc1ccccc1C(=O)Nc1cc2c(cc1N1CCCC1)n(C)c(=O)n2C | 46.1 | 79 | 84.2 | 115 | 114 | – | – | – | – | –
COc1ccc(CCc2nc3cc(-c4c(C)noc4C)ccc3n2C[C@H](C)N2CCOCC2)cc1Cl | 61.4 | 47.7 | 78.6 | 91.4 | 121 | – | – | – | – | –
CCCOc1ccn2c(C(C)=O)cc(-c3ccccc3S(C)(=O)=O)c2c1 | 59.1 | 65.2 | 98.8 | 113 | 111 | – | – | – | – | –
COc1cc(C#N)ccc1S(=O)(=O)Nc1ccc2c(c1)cc(C)c(=O)n2C | 66.9 | 86 | 127 | 149 | 101 | – | – | – | – | –
O=C(/C=C/N1C[C@H]2C[C@@H]1CN2c1ccccn1)c1ccccc1O | 70.1 | 38.6 | 45.4 | 77.2 | 109 | – | – | – | – | –
CCn1cc(-c2cccc(C(F)(F)F)c2)c2sc(C(=N)NC3CCS(=O)(=O)CC3)cc2c1=O | 66.7 | 68.8 | 84.2 | 144 | 132 | – | – | – | – | –
CCCOc1ccn2c(C(C)=O)cc(-c3cccc(OC)c3)c2c1 | 64.8 | 74.1 | 92.8 | 112 | 113 | – | – | – | – | –
COc1cc2c(cc1NS(=O)(=O)c1ccc(Br)cc1C)n(C)c(=O)n2C | 57.4 | 69.8 | 117 | 169 | 86.7 | – | – | – | – | –
CCCS(=O)(=O)c1nc(NC2CC2)cc(-c2ccc3c(ccn3C3CC(C)(C)NC(C)(C)C3)c2)n1 | 49.6 | 68.4 | 77.1 | – | – | 57.1178 | 66.056 | 68.6533 | 73.362% and 105.525% | 91.0371% and 136.896%
COc1cc(-c2cn(C)c(=O)c3cnccc23)c(OC)cc1CN(C)C | 53 | 31.8 | 44.2 | 55.4 | 95.6 | – | – | – | – | –
